Assay results reported in patent US20240374724A1, “ENPP1 INHIBITORS AND IMMUNE CELLS EXPRESSING CHIMERIC ANTIGEN RECEPTORS” (Angarus Therapeutics, Inc., priority 2021, published 2024).

Tests used:
[1] = tested on: B16F10 melanoma; assay: B16F10 melanoma with pmel-1 donor splenocytes (adoptive T cell therapy): tumor size and tumor flow cytometry; assay type: in vivo, C57BL/6 mice
From the text: For the study, 0.2×10^6 B16F10 melanoma cells/mouse were implanted on day −8 on flanks of C57BL/6 female mice. On day 0, when tumor size had reached about 80 mm3, mice were randomized into 3 groups with an n=12/group. All mice in the three groups were subjected to whole body irradiation with 5.0 Gy for lymphodepletion. […] gp100 specific donor splenocytes were harvested from C57BL/6 pmel-1 donor mice (The Jackson Laboratory, world wide web.jax.org/strain/005023). Briefly, splenocytes comprising immune cells such as T cells from spleens of 18 pmel-1 female C57BL/6 mice (Jackson labs) were harvested yielding˜90 Million splenocytes. The pmel-1 splenocytes were isolated, the red blood cells lysed, and the remaining splenocytes expanded and activated with IL-2 and gp100 antigen for 4 days in vitro, and administered to the B16 melanoma bearing mice by i.v. On day 7, mice were sacrificed, and tumor, spleen, and blood samples were collected. Tumor size of all three treatment groups were measured on days 0, 2, 5 and 7 (FIGS. 6 and 7). […] After mice were sacrificed, tumor samples were tested for the fraction of several live immune cells (CD45+ cells) in the tumor. Briefly, tumors were harvested, and samples digested with tumor digestion mix and cells collected and washed in FACS buffer. A sample of cells was stained with a live/dead stain (ef780) to test for live cells and enumerated by flow cytometry. […] When staining for intracellular markers, cells were fixed and permeabilized before staining with markers (ki67). For example, cells were stained with markers for MDSC and F4/80 macrophages and enumerated by flow cytometry. […] Samples were also analyzed for the percentage of gp100+, CD8+ T cells actively proliferating (ki67+ cells) that were present in the tumor.

[2] = tested on: IFN-γ secretion; assay: IFN-γ ELISA / ELISpot of splenocytes from B16F10 tumor bearing mice given donor T cells; assay type: in vivo, C57BL/6 mice
From the text: This example describes the in vitro activation and expansion of donor C57BL/6 pmel-1 splenocytes by INF-γ ELISA and INF-γ Elispot analysis of splenocytes derived from B16F10 melanoma syngeneic tumor model inoculated with Pmel-1 donor splenocytes (T-cells). Briefly, spleens and splenocytes from C57BL-B16F10 tumor bearing mice treated with or without an ENPP1 inhibitor and donor T cells are harvested and purified as described in Example 8. To test for cytokine secretion, the isolated splenocytes are then plated and co-cultured with gp100 peptide on a plate of an ELISpot kit and IFN-γ secretion is detected. The number of spots is counted for each well and summarized for each group. Additionally, or alternatively, IFN-γ secretion is detected with a IFN-γ ELISA test.

[3] = tested on: 4T1-luciferase tumor; assay: 4T1-luciferase tumor model: IR with compound 1, cGAMP and/or anti-CTLA-4; tumor volume and survival; assay type: in vivo, Balb/c mice; settings: 20 Gy IR + 10 μg cGAMP intratumoral alone
[4] = tested on: 4T1 tumor model; assay: Tumor-associated dendritic cells in mouse 4T1 tumor model with or without IR (FACS); assay type: in vivo, Balb/c mice; settings: intratumoral 100 μL of 1 mM
Procedure: Anaesthetized animals were shielded with a 3.2 mm lead shield with a 15×20 mm aperture where the tumor was placed. […] On the next day, the tumor was extracted and incubated in RPMI+10% FBS with 20 μg/mL DNase I type IV (Sigma-Aldrich) and 1 mg/mL Collagenase from Clostridium histolyticum (Sigma-Aldrich) at 37° C. for 30 min. […] Cells were stained with Live/Dead fixable near-IR dead cell staining kit (Thermo Fisher Scientific), Fc-blocked for 10 min using TruStain fcX and subsequently antibody-stained with CD11c, CD45, and I-A/I-E (all Biolegend). Cells were analyzed using an SH800S cell sorter (Sony) or an LSR II (BD Biosciences).

[5] = tested on: CD14+ IFNB1 expression
Procedure: Primary human peripheral blood mononucleocyte cells (PBMCs) were isolated by subjecting enriched buffy coat from whole blood to a Percoll density gradient. CD14^+ monocytes were isolated using CD14^+ MicroBeads (Miltenyi). CD14^+ monocyctes were cultured in RPMI supplemented with 2% human serum and 100 U/mL penicillin-streptomycin. […] 24-26 hours following supernatant transfer, total RNA was extracted using Trizol (Thermo Fisher Scientific) and reverse transcribed with Maxima H Minus Reverse Transcriptase (Thermo Fisher Scientific). Real-time RT-PCR was performed in duplicate with AccuPower 2×Greenstar qPCR Master Mix (Bioneer) on a 7900HT Fast Real-Time PCR System (Applied Biosystems). Data were normalized to CD14 expression for each sample. Fold induction was calculated using ΔΔCt.
Supernatant from these cells was transferred to primary CD14^+ human PBMCs. IFNB1 mRNA levels were normalized to CD14 and the fold induction was calculated relative to untreated CD14^+ cells.

[6] = molecular target: T1, purified recombinant mouse ENPP1 (Mus musculus, UniProt P06802); assay: ENPP1 activity assay using TMP-pNP as a substrate; assay type: biochemical; settings: TMP-pNP 2 μM, mouse ENPP1 0.5 nM, pH 7.5
T1 sequence (P06802 1-906): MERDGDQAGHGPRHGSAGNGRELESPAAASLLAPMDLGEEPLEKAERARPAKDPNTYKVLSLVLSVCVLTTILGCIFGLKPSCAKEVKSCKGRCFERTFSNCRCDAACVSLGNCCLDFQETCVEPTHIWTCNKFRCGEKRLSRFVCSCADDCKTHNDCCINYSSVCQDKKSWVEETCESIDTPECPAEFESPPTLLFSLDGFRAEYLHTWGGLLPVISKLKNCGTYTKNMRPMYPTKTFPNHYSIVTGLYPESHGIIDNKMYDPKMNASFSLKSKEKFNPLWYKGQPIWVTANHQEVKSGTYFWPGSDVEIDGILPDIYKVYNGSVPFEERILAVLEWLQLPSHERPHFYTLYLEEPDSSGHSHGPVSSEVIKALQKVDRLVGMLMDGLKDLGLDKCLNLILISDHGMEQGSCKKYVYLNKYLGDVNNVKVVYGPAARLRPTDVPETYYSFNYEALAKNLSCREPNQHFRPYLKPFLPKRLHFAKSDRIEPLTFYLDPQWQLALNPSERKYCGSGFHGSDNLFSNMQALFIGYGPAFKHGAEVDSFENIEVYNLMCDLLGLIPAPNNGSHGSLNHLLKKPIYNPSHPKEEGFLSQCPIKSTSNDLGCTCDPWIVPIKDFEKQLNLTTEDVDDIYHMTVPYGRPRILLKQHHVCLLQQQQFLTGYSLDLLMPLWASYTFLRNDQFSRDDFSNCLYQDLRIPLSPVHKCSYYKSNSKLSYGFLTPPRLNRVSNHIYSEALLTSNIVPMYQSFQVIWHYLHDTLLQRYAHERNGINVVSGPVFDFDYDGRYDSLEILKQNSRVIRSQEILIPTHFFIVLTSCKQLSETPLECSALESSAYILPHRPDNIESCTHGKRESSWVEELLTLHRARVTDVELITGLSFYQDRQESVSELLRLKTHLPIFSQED
Procedure: Selected compounds of Table 1, Table 2, Table 3, Table 4, Table 5, or Table 6 and other derivatives were prepared and assessed in an ENPP1 activity assay using thymidine monophosphate paranitrophenol (TMP-pNP) as a substrate. Enzyme reactions were prepared with TMP-pNP (2 μM), 5-fold dilutions of ENPP1 inhibitor, and purified recombinant mouse ENPP1 (0.5 nM) in 100 mM Tris, 150 mM NaCl, 2 mM CaCl2, 200 μM ZnCl2, pH 7.5 at room temperature. Reaction progress was monitored by measuring absorbance at 400 nm of paranitrophenolate produced by the reaction for 20 minutes.

[7] = 50 mg/kg plus donor splenocytes

Compound: COc1cccc2c(N3CCC(CCP(=O)(O)O)CC3)ncnc12 [Compound 76]
- tumor size at day 7 compared to PBS with donor cells ([1]; 5 mg/kg and donor T cells): smaller reduction in tumor size
- percentage of F4/80+ macrophages in tumors compared to PBS with donor T cells ([1]; 5 mg/kg plus donor T cells): higher
- percentage of MDSC macrophages in tumors compared to PBS with donor T cells ([1]; 5 mg/kg plus donor T cells): lower
- percentage of live cells in tumors compared to PBS with donor T cells ([1]; 5 mg/kg plus donor T cells): higher
- percentage of Thy1.1+ (pmel-1 derived), gp100+, CD8+ donor T cells in tumors compared to PBS with donor splenocytes ([1]; 5 mg/kg plus donor splenocytes): higher
- percentage of Thy1.2+ host cells in tumors ([1]; 5 mg/kg plus donor splenocytes): declined reciprocally
- percentage of gp100+, CD8+, ki67+ T cells in tumors compared to PBS with donor splenocytes ([1]; 5 mg/kg plus donor splenocytes): higher
- tumor size at day 7 compared to PBS with donor cells ([1]; 50 mg/kg and donor T cells): marked reduction in tumor size
- percentage of F4/80+ macrophages in tumors compared to PBS with donor T cells ([1]; 50 mg/kg plus donor T cells): higher
- percentage of MDSC macrophages in tumors compared to PBS with donor T cells ([1]; 50 mg/kg plus donor T cells): lower
- percentage of live cells in tumors compared to PBS with donor T cells ([1]; 50 mg/kg plus donor T cells): higher
- percentage of Thy1.1+ (pmel-1 derived), gp100+, CD8+ donor T cells in tumors compared to PBS with donor splenocytes [1, 7]: higher
- percentage of Thy1.2+ host cells in tumors [1, 7]: declined reciprocally
- percentage of gp100+, CD8+, ki67+ T cells in tumors compared to PBS with donor splenocytes [1, 7]: higher
- IFN-γ secretion compared to PBS with donor T cells ([2]; 5 mg/kg plus donor T cells): elevated
- IFN-γ secretion compared to PBS with donor T cells ([2]; 50 mg/kg plus donor T cells): elevated

Compound: Nc1nc2c(ncn2[C@@H]2O[C@@H]3COP(=O)(O)O[C@H]4[C@@H](O)[C@H](n5cnc6c(N)ncnc65)O[C@@H]4COP(=O)(O)O[C@@H]2[C@@H]3O)c(=O)[nH]1 [cGAMP, cyclic guanosine monophosphate-adenosine monophosphate]
- effect over IR treatment (tumor) [3]: no effect

Compound: COc1cc2ncnc(N3CCC(CCP(=O)(O)O)CC3)c2cc1OC [compound 1]
- tumor-associated leukocyte compositions compared to the PBS control ([4]; no IR): did not change
- tumor associated CD11c+ population ([4]; tumors pretreated with 20 Gy IR): increased
- extracellular cGAMP levels ([5]; 293T cGAS ENPP1low cells transiently overexpressing ENPP1): rescued
- CD14+ IFNB1 expression ([5]; supernatant of ENPP1-overexpressing 293T cGAS ENPP1low cells transferred to CD14+ monocytes): induced

Compound: O=P(O)(O)CCC1CCN(c2ncnc3ccccc23)CC1 [compound 25]
- IC50 [6]: 0.005 to 0.05 µM
